Test: Binding of stilbene derivatives to chitosan, dissociation constants by indirect difference spectroscopy
Conditions: qualitative statement on binding affinity
Text: Binding studies of stilbene derivatives to chitosan or MHEC

SMILES	binding to chitosan (in words)
Nc1ccc(C=Cc2ccc(N)cc2S(=O)(=O)O)c(S(=O)(=O)O)c1 [4,4′-diaminostilbene-2,2′-disulfonic acid]	neither the core structure itself nor its bis(dichlorotriazine) derivative (R^4a═R^6a═R^4b═R^6b═Cl) binds to chitosan
O=S(=O)(O)c1cc(Nc2nc(NCCO)nc(Nc3ccccc3)n2)ccc1C=Cc1ccc(Nc2nc(NCCO)nc(Nc3ccccc3)n2)cc1S(=O)(=O)O [OB85]	no significant improvement in binding
O=S(=O)(O)c1cc(Nc2nc(Nc3ccccc3)nc(N(CCO)CCO)n2)ccc1/C=C/c1ccc(Nc2nc(Nc3ccccc3)nc(N(CCO)CCO)n2)cc1S(=O)(=O)O [calcofluor white]	no significant improvement in binding

Reference: patent US9539273B2, “Targeted delivery of anti-fungal agents” (EDH Biotech Corp, priority 2013, dated 2017)
